# According to patent US20160120949A1, “USES OF IL-12 IN HEMATOPOIETIC IMMUNOTHERAPY (HIT)” (Neumedicines, Inc., priority 2014, published 2016):
# Structures can show the parent of a compound that is named as a salt.
# B1: rMuIL-12: murine recombinant IL-12, the murine counterpart to HemaMax (protein, UniProt P43431 23-215; P43432 23-335, looked up)
# Interleukin-12 subunit alpha: RVIPVSGPARCLSQSRNLLKTTDDMVKTAREKLKHYSCTAEDIDHEDITRDQTSTLKTCLPLELHKNESCLATRETSSTTRGSCLPPQKTSLMMTLCLGSIYEDLKMYQTEFQAINAALQNHNHQQIILDKGMLVAIDELMQSLNHNGETLRQKPPVGEADPYRVKMKLCILLHAFSTRVVTINRVMGYLSSA
# Interleukin-12 subunit beta: MWELEKDVYVVEVDWTPDAPGETVNLTCDTPEEDDITWTSDQRHGVIGSGKTLTITVKEFLDAGQYTCHKGGETLSHSHLLLHKKENGIWSTEILKNFKNKTFLKCEAPNYSGRFTCSWLVQRNMDLKFNIKSSSSSPDSRAVTCGMASLSAEKVTLDQRDYEKYSVSCQEDVTCPTAEETLPIELALEARQQNKYENYSTSFFIRDIIKPDPPKNLQMKPLKNSQVEVSWEYPDSWSTPHSYFSLKFFVRIQRKKEKMKETEEGCNQKGAFLVEKTSTEVQCKGGNVCVQAQDRYYNSSCSKWACVPCRVRS
# B2: IL-12: heterodimeric cytokine comprising p40 and p35 subunits; species of the IL-12 used in the megacult culture not stated (protein, UniProt P29459 23-219; P29460 23-328, looked up)
# Interleukin-12 subunit alpha: RNLPVATPDPGMFPCLHHSQNLLRAVSNMLQKARQTLEFYPCTSEEIDHEDITKDKTSTVEACLPLELTKNESCLNSRETSFITNGSCLASRKTSFMMALCLSSIYEDLKMYQVEFKTMNAKLLMDPKRQIFLDQNMLAVIDELMQALNFNSETVPQKSSLEEPDFYKTKIKLCILLHAFRIRAVTIDRVMSYLNAS
# Interleukin-12 subunit beta: IWELKKDVYVVELDWYPDAPGEMVVLTCDTPEEDGITWTLDQSSEVLGSGKTLTIQVKEFGDAGQYTCHKGGEVLSHSLLLLHKKEDGIWSTDILKDQKEPKNKTFLRCEAKNYSGRFTCWWLTTISTDLTFSVKSSRGSSDPQGVTCGAATLSAERVRGDNKEYEYSVECQEDSACPAAEESLPIEVMVDAVHKLKYENYTSSFFIRDIIKPDPPKNLQLKPLKNSRQVEVSWEYPDTWSTPHSYFSLTFCVQVQGKSKREKKDRVFTDKTSATVICRKNASISVRAQDRYYSSSWSEWASVPCS
# What was measured:
# [1] = cited from earlier work
# [2] = controlled room temperature 20° C. to 25° C.; cited from earlier work
# [3] = cited from earlier work; remark: listed apart in the source
# [4] = infusion time beyond 60 minutes; cited from earlier work
# [5] = tested on: Irradiated, Unsupported Rhesus Monkeys; experiment: Radiomitigation study in myeloablated, lethally irradiated, unsupported nonhuman primates; assay type: in vivo
# Method: FIG. 3: Kaplan-Meier Survival Curves of Irradiated, Unsupported Monkeys Treated with HemaMax™. Pooled HemaMax™ dosing group is shown. No antibiotics were used during the study. One animal with a broken tooth was excluded from the study because of an unrelated death to the study. p<0.05 pooled treatment groups.
# FIGS. 4A-4B: Leukocyte (A) and Thrombocyte (B) Counts in Irradiated, Unsupported Rhesus Monkeys Treated With HemaMax™. Three analyses were conducted to assess differences in blood cell counts during the study period.
# FIG. 4 describes […] Counts in Irradiated, Unsupported Rhesus Monkeys Treated With HemaMax™. Three analyses were conducted to assess differences in blood cell counts during the study period.
# human immune cells = experiment: Pharmacodynamic response (IFN-γ) in human immune cells in vitro; assay type: cell-based
# [6] = tested on: non-human primates (rhesus monkeys); experiment: Pharmacodynamic response (IFN-γ) in non-human primates in vitro and in vivo; conditions: both in vitro and in vivo
# [7] = tested on: neutrophils, red blood cells and platelets; experiment: Blood recovery after myelosuppressive radiation (625 rad), EL4 lymphoma tumor model; assay type: in vivo, mice; conditions: days 14-21
# Excerpt: (§1) FIGS. 1A-1B: Blood Recovery Profiles for Vehicle and rMuIL-12 Administered Before and After Myelosuppresive Radiation (625 rad). Blood cell recovery profiles are shown for the EL4 lymphoma tumor model (A) and the Lewis lung cancer model (B) for neutrophils, red blood cells and platelets. Pre-radiation blood values reflect an average of all animals in both groups before radiation and tumor inoculation. The normal threshold value for murine blood cell counts is indicated by the dashed line.
# (§2) Platelet recovery profiles are shown for the EL4 lymphoma tumor model (a) and the Lewis lung cancer model (b).
# [8] = tested on: neutrophils, red blood cells and platelets; experiment: Blood recovery after myelosuppressive radiation (625 rad), Lewis lung cancer model; assay type: in vivo, mice; conditions: days 14-21
# Excerpt: as §1, §2
# EL4 lymphoma tumor model = experiment: Tumor volume after radiation (625 rad), EL4 lymphoma tumor model; assay type: in vivo, mice; conditions: 625 rad day 1 and second dose day 22, pre, post and pre-post radiation dosing groups, endpoint of tumor volume evaluation
# Excerpt: (§3) FIGS. 2A-2B: Relative Changes in Tumor Volumes for Vehicle and rMuIL-12 Treatment Groups Following Radiation (625 rad). Changes in tumor volumes over the course of the experiment are shown for the EL4 lymphoma tumor model (A) and the Lewis Lung cancer tumor model (B). Mice in both tumor models were given 625 rad on day 1. Mice in both tumor models were given a second dose of radiation on day 22 following the initial radiation dose.
# as §3, with “FIG. 2 A-B describe” for “FIGS. 2A-2B:”, “(a)” for “(A)”, “(b).” for “(B).”
# [9] = tested on: Lewis Lung cancer tumor model; experiment: Tumor volume after radiation (625 rad), Lewis Lung cancer tumor model; assay type: in vivo, mice; conditions: 625 rad day 1 and second dose day 22, rMuIL-12 post-treatment, endpoint of tumor growth evaluation
# Excerpt: as §3
# as §3, with “FIG. 2 A-B describe” for “FIGS. 2A-2B:”, “(a)” for “(A)”, “(b).” for “(B).”
# femoral bone marrow = experiment: Hematopoietic recovery in irradiated mice (TBI 8.0 Gy), femoral bone marrow IHC for IL-12Rβ2; assay type: in vivo; conditions: 20 ng/mouse subcutaneously post irradiation, 12 days after irradiation
# Method: FIGS. 6A-6F: Murine IL-12 Promotes Hematopoietic Recovery in Irradiated Mice. Representative sections of femoral bone marrow from non-irradiated, untreated mice that were stained for IL-12Rβ2 are shown in (A). Animals were subjected to TBI (8.0 Gy) and subsequently received vehicle or rMuIL-12 (20 ng/mouse) subcutaneously at the indicated times post irradiation (B-F). Femoral bone marrow was immunohistochemically stained for IL-12Rβ2 (orange color) 12 days after irradiation. […] Magnification=100×.
# By way of example, FIG. 6 describes Murine IL-12 Promotes Hematopoietic Recovery in Irradiated Mice. Representative sections of femoral bone marrow from non-irradiated, untreated mice that were stained for IL-12Rβ2 (orange color) are shown in (a). Animals were subjected to TBI (8.0 Gy) and subsequently received vehicle or rMuIL-12 (20 ng/mouse) subcutaneously at the indicated times post irradiation (b-f). Femoral bone marrow was immunohistochemically stained for IL-12Rβ2 (orange color) 12 days after irradiation.
# platelets = experiment: Chemotherapy induced thrombocytopenia (CIT) model, gemcitabine/carboplatin (GC) chemotherapy, platelet counts; assay type: in vivo, mice; conditions: for % platelet counts from baseline (average and standard deviation): day 8
# Method: The effect of rMuIL-12 administration in conjunction with gemcitabine/carboplatin chemotherapy (GC) (6.6 mg gemcitabine dose+2 mg carboplatin) was examined. Mice received GC intravenously on day 0.
# Pre-dosing: rMuIL-12 was given 24 hours before chemotherapy treatment (n=18)
# Post-dosing: rMuIL-12 was administered 48 hours after chemotherapy treatment (n=19) Pre/post dosing: rMuIL-12 was given 24 hours before chemotherapy and 48 hours after chemotherapy (n=13)
# Averages of % platelet counts from baseline and standard deviations for each group at day 8 were: […]
# Lewis Lung tumor cells = experiment: Lewis Lung mouse tumor model with concomitant GC chemotherapy, tumor volume; assay type: in vivo; conditions: 20 ng subcutaneously before, after or before/after GC; differences not statistically significant
# Method: The effect of rMuIL-12 administration on tumor growth in a mouse tumor chemotherapy model was evaluated. The tumor model used Lewis Lung tumor cells that were subcutaneously injected (100,000 cells) in each mouse. At a given time after tumor inoculation, mice were treated with chemotherapy. The gemcitabine/carboplatin chemotherapy regimen as described above was used and administered IP. rMuIL-12 was administered subcutaneously (20 ng) before, after, or before/after chemotherapy as indicated below.
# Pre-dosing (n=16): rMuIL-12 was given 24 hours before chemotherapy treatment,
# Post-dosing (n=16): rMuIL-12 was administered 48 hours after chemotherapy treatment
# Pre/post dosing (n=16): rMuIL-12 was given 24 hours before chemotherapy and 48 hours after chemotherapy. Control (n=16)
# Tumor volume was monitored over time to compared tumor growth in the control compared to rMuIL-12 treated mice. […] The differences among groups in tumor growth were not statistically significant.
# Lewis Lung tumor = Lewis Lung tumor model with two rounds of gemcitabine monotherapy, tumor volume; assay type: in vivo, mouse; conditions: gemcitabine 6.6 mg IP twice, one week apart; differences not statistically significant
# Method: The study evaluate the effect of rMuIL-12 on tumor growth in a mouse chemotherapy model was followed up with a second study to examine the growth in the same Lewis Lung model when gemcitabine was used as monotherapy and administered two times, one week apart. rMuIL-12 was also administered as pre-dosing and post-dosing, as described above, and also with a 24 hour post group and on the same day as chemotherapy administration. rMuIL-12 was administered at either both weeks of chemotherapy or only the first week. There were five groups with n=5 for each group. These groups are described below: Chemotherapy once weekly: Gemcitabine only, administered IP, 6.6 mg rMuIL-12 given weekly, three schedules: 24 hours pre-chemotherapy (Pre); Same day as chemotherapy (SD); 24 hours post chemotherapy (Post1=24 hrs-post; Post2=48 hrs-post).
# By way of example, FIG. 10 describes Lewis Lung Tumor Volume of Mice Under Monotherapy With Gemcitabine Receiving rMuIL-12. Day 0 is the time of the first chemotherapy. The second chemotherapy administration took place at day 7. […] The differences in growth among groups were not statistically significant.
# Lin-IL-12Rβ2-cells = experiment: Megacult colony culture with and without IL-12; assay type: cell-based; conditions: megacult medium, 5000 cells/slide
# Method: FIG. 7: Lin-IL-12Rβ2-cells were plated in megacult medium at 5000 cells/slide with and without IL-12.
# By way of example, FIG. 7 describes Lin-IL-12RB2-cells were plated in megacult medium at 5000 cells/slide with and without IL-12.
# [10] = days 12 and 14, 100 ng/kg and 250 ng/kg doses
# [11] = rMuIL-12 before and after 625 rad
molecule,measurement,setting,value
"Nc1ccn([C@@H]2O[C@H](CO)[C@@H](O)C2(F)F)c(=O)n1 [Gemzar, 2′-deoy-2′,2′-difluorocytidine monohydrochloride (β-isomer)]",maximum concentration upon reconstitution (solubility considerations),[1]; 0.9% Sodium Chloride Injection,40 mg/mL
same,solubility in ethanol and polar organic solvents,[1]; ethanol and polar organic solvents,practically insoluble in ethanol and polar organic
same,solubility in methanol,[1]; methanol,slightly soluble
same,solubility in water,[1]; water,soluble
same,stability of prepared solutions,[2],24 h
same,acute dermal irritation,[3]; animal studies,not been observed
same,"rabbits with drug-related systemic toxicities (death, hypoactivity, nasal discharge, shallow breathing) due to dermal absorption","[3]; rabbits, dermal",two of three
same,toxicity on prolongation of infusion time beyond 60 minutes,[4],minutes has been shown to increase toxicity.
"HemaMax: recombinant human IL-12, heterodimeric glycoprotein of p35 and p40 subunits, 503 amino acids, produced in CHO cells",numbers of leukocytes as compared to vehicle,[5]; [10],significantly higher numbers
same,numbers of thrombocytes as compared to vehicle,[5]; [10],significantly higher numbers
same,monkeys that required a platelet transfusion,"[5]; lethal radiation NHP study, vehicle 80%",25%
same,platelet and WBC nadirs,[5]; lethally irradiated NHP,attenuates
same,survival,"[5]; lethally irradiated NHP, no antibiotics, pooled dosing groups",increases survival
same,pharmacodynamic response (interferon-γ [IFN-γ]),human immune cells,potently elicits
same,pharmacodynamic response (interferon-γ [IFN-γ]),[6],potently elicits
B1,platelet counts as compared to the vehicle control,[7]; 625 rad,statistically significant improvements
same,blood cell counts as compared to the vehicle control,[7]; [11],statistically significant improvements
same,platelet counts as compared to the vehicle control,[8]; 625 rad,statistically significant improvements
same,blood cell counts as compared to the vehicle control,[8]; [11],statistically significant improvements
same,tumor growth % T/C,EL4 lymphoma tumor model,< 50%
same,tumor growth % T/C,[9],< 50%
same,hematopoietic recovery in femoral bone marrow,femoral bone marrow,hematopoietic reconstitution
same,animals with a decrease in platelets of more than 33%,platelets; all rMuIL-12 treated groups,0 out of 50
same,% platelet counts from baseline (average and standard deviation),platelets; Post-dosing: 48 hours after chemotherapy,110±37%
same,% platelet counts from baseline (average and standard deviation),platelets; Pre-dosing: 24 hours before chemotherapy,79±34%
same,% platelet counts from baseline (average and standard deviation),platelets; Pre/Post dosing: 24 hours before and 48 hours after chemotherapy,111±33%
same,mice with platelet levels that dropped one-third of baseline level or more,"platelets; rMuIL-12 prior to, after or both prior to and after chemotherapy, 8 days after chemotherapy",0%
same,tumor growth (tumor volume),Lewis Lung tumor cells,did not increase tumor growth
same,tumor growth rate (tumor volume),Lewis Lung tumor,did not increase the tumor growth rate
B2,colony size in comparison to media alone,Lin-IL-12Rβ2-cells,larger colonies
